Our source for the relief of polymyositis and effect on eczema values is patent US20130296266A1, “Pharmaceutical Composition of Complex Carbohydrates and Essential Oils and Methods of Using the Same” (Dermal Research Laboratories, Inc., priority 1999, published 2013).

For one test, the system named is polymyositis. The experiment in a line: Mucosal treatment of polymyositis (Example 26). It is filed as in vivo, human. The following applies: 50 mg daily. Here is the method:
A person suffering from colon cancer had been unable to tolerate their colostomy and demanded that their surgeon reconnect their intestines. They refused chemotherapy but requested a preparation prepared according to this invention. They were given a formulation of sodium hyaluronate (Collaborative Laboratories, Inc) which was prepared with a mixture of molecular weights of hyaluronate (as in EXAMPLE 4). When they began taking the hyaluronate preparation, their CEA was 70.1. They have taken the hyaluronate at a dose of 10 mg three times per day mucosally and after 6 months of treatment their CEA has dropped to 4.1. They have taken no other treatments. This patient had also suffered from polymyositis for 15 years. […] After 6 months they have been able to reduce their Prednisone to 5 mg per day.

The next test deals with chronic eczema. The test can be described thus: Topical treatment of chronic eczema (Example 16). Particulars: person. It is filed as in vivo, human. From the text: A person suffered from chronic eczema—scaly and red areas on their neck and arms. They had tried all types of treatments, including cortisone with no effect. They were given a preparation containing a mixture of low and high molecular weight sodium hyaluronate (prepared as in EXAMPLE 4) mixed with 1% Wintergreen Oil, 1% Spearmint Oil, and 0.5% Peppermint Oil. They applied it for one week. […] They have not treated the area for 2 months and has noted no return of signs of eczema.

In the case of `C[C@]12C=CC(=O)C=C1CC[C@@H]1[C@@H]2C(=O)C[C@@]2(C)[C@H]1CC[C@]2(O)C(=O)CO` [Prednisone], in the test on polymyositis, the relief of polymyositis result is reported as “without much relief”. Turning to `C[C@]12CCC(=O)C=C1CC[C@@H]1[C@@H]2C(=O)C[C@@]2(C)[C@H]1CC[C@]2(O)C(=O)CO` [cortisone], in the test on chronic eczema, the effect on eczema entry is reported as “no effect”.
